# Results from ChEMBL document CHEMBL1201862, “PubChem BioAssay data set” (2004).
# “And” between values parts separate entries of the source, which are not always exact repeats. Equal entries are not always repeated.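 Results reflect a 48-hour exposure of cells in 96-well plates to compound at five concentrations. GI50 is the concentration that inhibits growth by half.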 The source made the active and inactive calls. Rule as the data show it: active = GI50 up to about 1.1 µM and inactive = higher.
# Key:
# Experiment in all cases: NCI tumour cell line growth inhibition, 48 h
# [1] = tested on: 786-0
# [2] = tested on: A498
# [3] = tested on: A549
# [4] = tested on: ACHN
# [5] = tested on: BT-549
# [6] = tested on: CAKI-1
# [7] = tested on: CCRF-CEM
# [8] = tested on: COLO 205
# [9] = tested on: DU-145
# [10] = tested on: EKVX
# [11] = tested on: HCC 2998
# [12] = tested on: HCT-116
# [13] = tested on: HCT-15
# [14] = tested on: HOP-62
# [15] = tested on: HOP-92
# [16] = tested on: HT-29
# [17] = tested on: IGROV-1
# [18] = tested on: K562
# [19] = tested on: KM12
# [20] = tested on: LOX IMVI
# [21] = tested on: M14
# [22] = tested on: MCF7
# [23] = tested on: MDA-MB-231
# [24] = tested on: MDA-MB-435
# [25] = tested on: MDA-N
# [26] = tested on: MOLT-4
# [27] = tested on: Malme-3M
# [28] = tested on: NCI-H23
# [29] = tested on: NCI-H460
# [30] = tested on: NCI-H522
# [31] = tested on: NCI/ADR-RES
# [32] = tested on: OVCAR-3
# [33] = tested on: OVCAR-4
# [34] = tested on: OVCAR-5
# [35] = tested on: OVCAR-8
# [36] = tested on: SF-268
# [37] = tested on: SF-295
# [38] = tested on: SF-539
# [39] = tested on: SK-MEL-28
# [40] = tested on: SK-MEL-5
# [41] = tested on: SK-OV-3
# [42] = tested on: SN12C
# [43] = tested on: SNB-19
# [44] = tested on: SNB-75
# [45] = tested on: SR
# [46] = tested on: SW-620
# [47] = tested on: T47D
# [48] = tested on: TK-10
# [49] = tested on: U-251
# [50] = tested on: UACC-257
# [51] = tested on: UACC-62
# [52] = tested on: UO-31
# [53] = tested on: NCI-H226
# [54] = tested on: RPMI-8226
# [55] = tested on: RXF 393
# [56] = tested on: HL-60
# [57] = tested on: PC-3
# [58] = tested on: SK-MEL-2
compound,measurement,setting,value
COc1ccc(Nc2nc(NNC(=O)Cc3ccccc3)nc(NNC(=O)c3ccncc3)n2)cc1,GI50,[1],> 10 µM (inactive)
same,GI50,[2],> 10 µM (inactive)
same,GI50,[3],> 10 µM (inactive)
same,GI50,[4],> 10 µM (inactive)
same,GI50,[5],> 10 µM (inactive)
same,GI50,[6],> 10 µM (inactive)
same,GI50,[7],> 10 µM (inactive)
same,GI50,[8],> 10 µM (inactive)
same,GI50,[9],> 10 µM (inactive)
same,GI50,[10],955 nM (active)
same,GI50,[11],> 10 µM (inactive)
same,GI50,[12],> 10 µM (inactive)
same,GI50,[13],> 10 µM
same,GI50,[14],> 10 µM (inactive)
same,GI50,[15],> 10 µM (inactive)
same,GI50,[16],> 10 µM (inactive)
same,GI50,[17],> 10 µM (inactive)
same,GI50,[18],> 10 µM (inactive)
same,GI50,[19],> 10 µM (inactive)
same,GI50,[20],> 10 µM (inactive)
same,GI50,[21],> 10 µM (inactive)
same,GI50,[22],> 10 µM (inactive)
same,GI50,[23],> 10 µM (inactive)
same,GI50,[24],> 10 µM (inactive)
same,GI50,[25],> 10 µM (inactive)
same,GI50,[26],> 10 µM (inactive)
same,GI50,[27],> 10 µM (inactive)
same,GI50,[28],> 10 µM (inactive)
same,GI50,[29],> 10 µM (inactive)
same,GI50,[30],> 10 µM (inactive)
same,GI50,[31],> 10 µM (inactive)
same,GI50,[32],> 10 µM (inactive)
same,GI50,[33],> 10 µM (inactive)
same,GI50,[34],> 10 µM (inactive)
same,GI50,[35],> 10 µM (inactive)
same,GI50,[36],> 10 µM (inactive)
same,GI50,[37],> 10 µM (inactive)
same,GI50,[38],> 10 µM (inactive)
same,GI50,[39],> 10 µM (inactive)
same,GI50,[40],> 10 µM (inactive)
same,GI50,[41],> 10 µM (inactive)
same,GI50,[42],> 10 µM (inactive)
same,GI50,[43],> 10 µM (inactive)
same,GI50,[44],> 10 µM (inactive)
same,GI50,[45],> 10 µM (inactive)
same,GI50,[46],> 10 µM (inactive)
same,GI50,[47],> 10 µM (inactive)
same,GI50,[48],> 10 µM (inactive)
same,GI50,[49],> 10 µM (inactive)
same,GI50,[50],> 10 µM (inactive)
same,GI50,[51],1.95 µM (inactive)
same,GI50,[52],> 10 µM (inactive)
C=CCN1C(=O)/C(=C/c2ccc(OC)cc2)N=C1SC1OC(COC(C)=O)C(OC(C)=O)C(OC(C)=O)C1OC(C)=O (stereo not given),GI50,[1],17.2 µM (inactive)
same,GI50,[2],31.9 µM (inactive) and 32.4 µM (inactive)
same,GI50,[3],34.8 µM (inactive)
same,GI50,[5],27.2 µM (inactive) and 19.8 µM (inactive)
same,GI50,[8],67.8 µM (inactive) and 41.3 µM (inactive)
same,GI50,[9],23.4 µM (inactive) and 45.3 µM (inactive)
same,GI50,[10],28.2 µM (inactive) and 21.4 µM (inactive)
same,GI50,[11],39.7 µM (inactive) and 64.3 µM (inactive)
same,GI50,[12],30.8 µM (inactive)
same,GI50,[13],36.4 µM and 43.7 µM
same,GI50,[15],12.7 µM (inactive) and 17.3 µM (inactive)
same,GI50,[16],8.45 µM (inactive)
same,GI50,[18],36.7 µM (inactive) and 24.5 µM (inactive)
same,GI50,[21],39.4 µM (inactive)
same,GI50,[25],37.8 µM (inactive)
same,GI50,[27],44.2 µM (inactive) and 57.5 µM (inactive)
same,GI50,[53],21.6 µM (inactive) and 32.1 µM (inactive)
same,GI50,[28],33.5 µM (inactive) and 36.9 µM (inactive)
same,GI50,[31],30.8 µM (inactive) and 48.8 µM (inactive)
same,GI50,[54],32.8 µM (inactive) and 43.3 µM (inactive)
same,GI50,[55],27 µM (inactive) and 25.3 µM (inactive)
same,GI50,[40],19.5 µM (inactive) and 29 µM (inactive)
same,GI50,[41],18.1 µM (inactive) and 34.7 µM (inactive)
same,GI50,[42],29.6 µM (inactive)
same,GI50,[43],32 µM (inactive)
same,GI50,[44],19.1 µM (inactive) and 35.5 µM (inactive)
same,GI50,[45],34.5 µM (inactive) and 25.9 µM (inactive)
same,GI50,[46],60 µM (inactive) and 36.9 µM (inactive)
same,GI50,[47],23.8 µM (inactive)
same,GI50,[50],29.4 µM (inactive) and 20.7 µM (inactive)
Cc1nc2c(=S)[nH]ncc2[nH]1,GI50,[1],> 100 µM (inactive)
same,GI50,[2],> 100 µM (inactive)
same,GI50,[3],> 100 µM (inactive)
same,GI50,[4],> 100 µM (inactive)
same,GI50,[5],> 100 µM (inactive)
same,GI50,[6],> 100 µM (inactive)
same,GI50,[7],> 100 µM (inactive)
same,GI50,[8],> 100 µM (inactive)
same,GI50,[10],> 100000 nM (inactive)
same,GI50,[11],> 100 µM (inactive)
same,GI50,[12],> 100 µM (inactive)
same,GI50,[13],> 100 µM
same,GI50,[56],> 100 µM (inactive)
same,GI50,[14],> 100 µM (inactive)
same,GI50,[15],> 100 µM (inactive)
same,GI50,[16],> 100 µM (inactive)
same,GI50,[17],> 100 µM (inactive)
same,GI50,[18],> 100 µM (inactive)
same,GI50,[19],> 100 µM (inactive)
same,GI50,[20],> 100 µM (inactive)
same,GI50,[21],> 100 µM (inactive)
same,GI50,[22],> 100 µM (inactive)
same,GI50,[23],> 100 µM (inactive)
same,GI50,[24],> 100 µM (inactive)
same,GI50,[25],> 100 µM (inactive)
same,GI50,[26],> 10 µM (inactive)
same,GI50,[27],94.8 µM (inactive)
same,GI50,[53],> 100 µM (inactive)
same,GI50,[28],> 100 µM (inactive)
same,GI50,[30],> 100 µM (inactive)
same,GI50,[31],> 100 µM (inactive)
same,GI50,[32],> 100 µM (inactive)
same,GI50,[33],> 100 µM (inactive)
same,GI50,[34],> 100 µM (inactive)
same,GI50,[35],> 100 µM (inactive)
same,GI50,[57],> 100 µM (inactive)
same,GI50,[54],> 100 µM (inactive)
same,GI50,[37],> 100 µM (inactive)
same,GI50,[38],> 100 µM (inactive)
same,GI50,[39],> 100 µM (inactive)
same,GI50,[58],> 100 µM (inactive)
same,GI50,[40],> 100 µM (inactive)
same,GI50,[41],> 100 µM (inactive)
same,GI50,[42],> 100 µM (inactive)
same,GI50,[43],> 100 µM (inactive)
same,GI50,[44],> 100 µM (inactive)
same,GI50,[46],> 100 µM (inactive)
same,GI50,[47],> 100 µM (inactive)
same,GI50,[48],> 100 µM (inactive)
same,GI50,[49],> 100 µM (inactive)
same,GI50,[50],> 100 µM (inactive)
same,GI50,[51],> 100 µM (inactive)
same,GI50,[52],> 100 µM (inactive)
